This is an account of results in patent publication US12084462B2, “Spiro bicyclic inhibitors of menin-MLL interaction” (Janssen Pharmaceutica NV, priority 2016, dated 2024).

The experiment relates to MV-4-11. As to the kind of experiment: Proliferation assay (spheroid assay) MV-4-11. In kind it is cell-based, human. The note with it: Homo sapiens, MV4-11, MV-4-11; averaged values; read-out: Spheroid assay MV-4-11 (IC50 (μM)). The procedure: The anti-proliferative effect of menin/MLL protein/protein interaction inhibitor test compounds was assessed in human leukemia cell lines. The cell lines MV-4-11 and MOLM14 harbor MLL translocations and express the MLL fusion proteins MLL-AF4 and MLL-AF9, respectively, as well as the wildtype protein from the second allele. […] K562 and KG1 were used as a control cell lines containing two MLL wildtype alleles in order to exclude compounds that display general cytotoxic effects.
MV-4-11 and MOLM14 were cultured in RPMI-1640 (Sigma Aldrich) supplemented with 10% fetal bovine serum (HyClone), 2 mM L-glutamine (Sigma Aldrich) and 50 μg/ml gentamycin (Gibco). K562 were propagated in RPMI-1640 (Sigma Aldrich) supplemented with 20% fetal bovine serum (HyClone), 2 mM L-glutamine (Sigma Aldrich) and 50 μg/ml gentamycin (Gibco). KG1 were cultured in Iscove's MDM (Gibco) supplemented with 20% fetal bovine serum (HyClone), 2 mM L-glutamine (Sigma Aldrich) and 50 μg/ml gentamycin (Gibco).
In order to assess the anti-proliferative effects, 1,500 MV-4-11, 300 MOLM14, 750 K562 or 1,300 KG1 cells were seeded in 200 μl media per well in 96-well round bottom, ultra-low attachment plates (Costar, catalogue number 7007). Cell seeding numbers were chosen based on growth curves to ensure linear growth throughout the experiment. Test compounds were added at different concentrations and the DMSO content was normalized to 0.3%. Cells were incubated for 8 d at 37° C. and 5% CO2. Spheroid like growth was monitored in real-time by live-cell imaging (IncuCyteZOOM, Essenbio, 4× objective) acquiring one image every four hours for 8 d. Confluence (%) as a measure of spheroid size was determined using an integrated analysis tool.
In order to determine the cumulative effect of the test compounds over time, the area under the curve (AUC) in a plot of confluence against time was calculated. Confluence at the beginning of the experiment (t=0) was used as baseline for the AUC calculation.
Absolute IC50 values were calculated according to the following procedure: % Control=(AUC sample/AUC control)*100 AUC control=mean AUC of control values (cells without compound/DMSO as vehicle control)
A non-linear curve fit was applied using the least squares (ordinary) fit method to the plot of % control versus compound concentration. Based on this, the absolute IC50 value (half maximal inhibitory concentration of the test compound causing an anti-proliferative effect of 50% relative to the vehicle control) was calculated.
Consider `CC(C)[C@H](c1cnn(C)c1)N1CC[C@]2(CCN(c3ncnc4sc(CC(F)(F)F)cc34)C2)C1` (single isomer, unassigned) [Compound 188], for which the IC50 (as a rule, the concentration that inhibits the measured activity by half) stood at 1.5 µM.
On to `CC[C@@H](C)[C@H](c1cnn(C)c1)N1CC2(CCN(c3ncnc4sc(CC(F)(F)F)cc34)C2)C1` (single isomer, unassigned) [Compound 235], for which the IC50 was 0.71 µM.
Then `CC[C@@H](C)[C@@H](c1cnn(C)c1)N1CC2(CCN(c3ncnc4sc(CC(F)(F)F)cc34)C2)C1` (single isomer, unassigned) [Compound 237], with 1.2 µM; and `CC(C)CCN1CC[C@@]2(CCN(c3ncnc4sc(CC(F)(F)F)cc34)C2)C1` (single isomer, unassigned) [Compound 293], with 1.67 µM; and `CC(C)CCN1CC[C@]2(CCN(c3ncnc4sc(CC(F)(F)F)cc34)C2)C1` (single isomer, unassigned) [Compound 294], with 1.83 µM.
Then `FC(F)(F)Cc1cc2c(N3CC[C@@]4(CCN(CCc5ccccc5)C4)C3)ncnc2s1` (single isomer, unassigned) [Compound 296], with 4.89 µM; and `Fc1ccc(CCN2CC[C@@]3(CCN(c4ncnc5sc(CC(F)(F)F)cc45)C3)C2)cc1` (single isomer, unassigned) [Compound 298], with 4.23 µM; and `Cn1cc(CN2CC[C@]3(CCN(c4ncnc5sc(CC(F)(F)F)cc45)C3)C2)cn1` (single isomer, unassigned) [Compound 299], with 3.18 µM.
Consider `CC(C)CC(C1CCC2(CCCC2)OC1)N1CC2(CCN(c3ncnc4sc(CC(F)(F)F)cc34)C2)C1` (single isomer, unassigned) [Compound 313], for which the IC50 is 3.6 µM.
Under `Cc1ccccc1CN1CC2(CCN(c3ncnc4sc(CC(F)(F)F)cc34)C2)C1` [Compound 45] stands 3.4 µM.
Consider `Cc1cccc(CN2CC3(CCN(c4ncnc5sc(CC(F)(F)F)cc45)C3)C2)c1` [Compound 46], for which the IC50 was 4.1 µM.
On to `Cc1ccc(CN2CC3(CCN(c4ncnc5sc(CC(F)(F)F)cc45)C3)C2)cc1` [Compound 49], for which the IC50 was found to be 2.1 µM.
Under `Fc1ccccc1CN1CC2(CCN(c3ncnc4sc(CC(F)(F)F)cc34)C2)C1` [Compound 54] stands 3.7 µM; under `Fc1cccc(CN2CC3(CCN(c4ncnc5sc(CC(F)(F)F)cc45)C3)C2)c1` [Compound 56], 4.9 µM.
Consider `CC(C)CN1CCC2(C1)CN(c1ncnc3sc(CC(F)(F)F)cc13)C2` [Compound 58], for which the IC50 worked out at 2.7 µM.
`FC(F)(F)Cc1cc2c(N3CCC4(CN(CCC5CCOCC5)C4)C3)ncnc2s1` [Compound 67]: the IC50 is 4.9 µM.
Then `FC(F)(F)Cc1cc2c(N3CCC4(CN(CCc5ccccc5)C4)C3)ncnc2s1` [Compound 69], with 1.2 µM.
Under `COCCn1cc(C(C(C)C)N2CC3(CCN(c4ncnc5sc(CC(F)(F)F)cc45)C3)C2)cn1` (centres unmarked) [Compound 71] stands 1.1 µM; under `NCCn1cc(CN2CC3(CCN(c4ncnc5sc(CC(F)(F)F)cc45)C3)C2)cn1` [Compound 77], 12.1 µM; under `CN1CC2(CC2)C[C@H]1C(=O)N1CC2(C1)CN(c1ncnc3sc(CC(F)(F)F)cc13)C2` [Compound 108], above 15 µM.
Then `O=C([C@H]1CC2(CC2)CN1)N1CC2(C1)CN(c1ncnc3sc(CC(F)(F)F)cc13)C2` [Compound 109], with 8.1 µM; and `CO[C@@H]1CN[C@H](C(=O)N2CC3(C2)CN(c2ncnc4sc(CC(F)(F)F)cc24)C3)C1` [Compound 110], with 4 µM; and `CO[C@H]1CN[C@H](C(=O)N2CC3(C2)CN(c2ncnc4sc(CC(F)(F)F)cc24)C3)C1` [Compound 111], with 9.3 µM.
Turning to `C[C@@H](C1CCNCC1)N1CC2(CCN(c3ncnc4sc(CC(F)(F)F)cc34)C2)C1` [Compound 146], the IC50 is 2.4 µM.
Then `C[C@H](C1CCNCC1)N1CC2(CCN(c3ncnc4sc(CC(F)(F)F)cc34)C2)C1` [Compound 147], with 8.2 µM.
Under `CC(C)C(C1CCNCC1)N1CC2(CCN(c3ncnc4sc(CC(F)(F)F)cc34)C2)C1` (centres unmarked) [Compound 148] stands 0.33 µM.
In the case of `C[C@H](C1CNC1)N1CC2(CCN(c3ncnc4sc(CC(F)(F)F)cc34)C2)C1` [Compound 150], the IC50 was 2 µM.
Then `CC(C)C(C1CCOCC1)N1CC2(CCN(c3ncnc4sc(CC(F)(F)F)cc34)C2)C1` (centres unmarked) [Compound 156], with 0.79 µM.
`Cc1nn(C)cc1C(C(C)C)N1CC2(CCN(c3ncnc4sc(CC(F)(F)F)cc34)C2)C1` (centres unmarked) [Compound 161]: the IC50 amounted to 4.2 µM.
Then `CC(C)[C@@H](C1CCOCC1)N1CC2(CCN(c3ncnc4sc(CC(F)(F)F)cc34)C2)C1` [Compound 162], with 3.1 µM.
Then `Cc1nn(C)cc1[C@@H](C(C)C)N1CC2(CCN(c3ncnc4sc(CC(F)(F)F)cc34)C2)C1` [Compound 166], with 2.4 µM.
Take `CC(C)[C@@H](C1CCNCC1)N1CC2(CCN(c3ncnc4sc(CC(F)(F)F)cc34)C2)C1` [Compound 169]: the IC50 was determined as 3.5 µM.
Then `CC(Cc1cc(F)cc(F)c1)N1CC2(CCN(c3ncnc4sc(CC(F)(F)F)cc34)C2)C1` (centres unmarked) [Compound 170], with 4.3 µM; and `COc1ccccc1CC(C)N1CC2(CCN(c3ncnc4sc(CC(F)(F)F)cc34)C2)C1` (centres unmarked) [Compound 171], with 3.1 µM.
As for `Cc1c(C(C(C)C)N2CC3(CCN(c4ncnc5sc(CC(F)(F)F)cc45)C3)C2)cnn1C` (centres unmarked) [Compound 172], the IC50 is 2.9 µM.
Then `Cc1c([C@@H](C(C)C)N2CC3(CCN(c4ncnc5sc(CC(F)(F)F)cc45)C3)C2)cnn1C` [Compound 173], with 3.2 µM; and `CC(C)C[C@H](C1CCOCC1)N1CC2(CCN(c3ncnc4sc(CC(F)(F)F)cc34)C2)C1` [Compound 179], with 1.3 µM.
On to `CC(C)C[C@@H](C1CCOCC1)N1CC2(CCN(c3ncnc4sc(CC(F)(F)F)cc34)C2)C1` [Compound 180], for which the IC50 stood at 1.9 µM.
Then `CC(Cc1cccc(F)c1)N1CC2(CCN(c3ncnc4sc(CC(F)(F)F)cc34)C2)C1` (centres unmarked) [Compound 183], with 1.3 µM; and `FC(F)(F)Cc1cc2c(N3CC[C@@]4(CCN(CC5CCOCC5)C4)C3)ncnc2s1` [Compound 185], with 1.3 µM.
Turning to `CC(C)C(c1cnn(C)c1)N1CC[C@]2(CCN(c3ncnc4sc(CC(F)(F)F)cc34)C2)C1` (some centres unmarked) [Compound 186], the IC50 was found to be 1.3 µM.
As to `FC(F)(F)Cc1cc2c(N3CC[C@]4(CCN(CC5CCOCC5)C4)C3)ncnc2s1` [Compound 187], the IC50 was determined as 1.4 µM.
Take `Cn1cc([C@H](C2CCNCC2)N2CC3(CCN(c4ncnc5sc(CC(F)(F)F)cc45)C3)C2)cn1` [Compound 202]: the IC50 was above 15 µM.
As to `CC(C)[C@@H](c1cnn(C)c1)N1CC2(CCN(c3ncnc4sc(CC(F)(F)F)cc34)C2)C1` [Compound 203], the IC50 was found to be 7.2 µM.
For the compound `CC(C)C[C@@H](C1CNC1)N1CC2(CCN(c3ncnc4sc(CC(F)(F)F)cc34)C2)C1` [Compound 213], the IC50 amounted to 1.9 µM.
Then `CC(C)C(C1CNC1)N1CC2(CCN(c3ncnc4sc(CC(F)(F)F)cc34)C2)C1` (centres unmarked) [Compound 222], with 0.2 µM; and `CC(c1cn[nH]c1)N1CC2(CCN(c3ncnc4sc(CC(F)(F)F)cc34)C2)C1` (centres unmarked) [Compound 223], with 6.1 µM; and `CCC(C1CNC1)N1CC2(CCN(c3ncnc4sc(CC(F)(F)F)cc34)C2)C1` (centres unmarked) [Compound 259], with 1.3 µM.
On to `FC(F)(F)Cc1cc2c(N3CCC4(CN(CC5CCNCC5)C4)C3)ncnc2s1` [Compound 311], for which the IC50 is 2.4 µM.
Under `CC(Cc1ccc(C#N)cc1)N1CC2(CCN(c3ncnc4sc(CC(F)(F)F)cc34)C2)C1` (centres unmarked) [Compound 314] stands 0.73 µM; under `Cc1ccc(CC(C2CNC2)N2CC3(CCN(c4ncnc5sc(CC(F)(F)F)cc45)C3)C2)cc1` (centres unmarked) [Compound 318], 1.09 µM; under `COc1cccc(CC(C)N2CC3(CCN(c4ncnc5sc(CC(F)(F)F)cc45)C3)C2)c1` (centres unmarked) [Compound 320], 1.37 µM.
In the case of `COc1ccc(CC(C)N2CC3(CCN(c4ncnc5sc(CC(F)(F)F)cc45)C3)C2)cc1` (centres unmarked) [Compound 321], the IC50 is 1.1 µM.
Then `CC(Cc1ccccc1F)N1CC2(CCN(c3ncnc4sc(CC(F)(F)F)cc34)C2)C1` (centres unmarked) [Compound 322], with 1.7 µM; and `CC(Cc1ccc(O)cc1)N1CC2(CCN(c3ncnc4sc(CC(F)(F)F)cc34)C2)C1` (centres unmarked) [Compound 323], with 0.75 µM.
Then `Cc1ccc(CC(C)N2CC3(CCN(c4ncnc5sc(CC(F)(F)F)cc45)C3)C2)cc1` (centres unmarked) [Compound 324], with 1.9 µM.
